Laboratory results from patent publication US8129380B2, “Phthalazinone derivatives” (AstraZeneca AB, priority 2008, dated 2012).

Tests used:
[1] = Solubility in 0.1 M phosphate buffer; format: physicochemical; settings: pH 7.4, 24 hours, 25° C.
Experimental: The solubility of the test compounds was measured following a method described in Leach, A., et al., J Med Chem (2006), 49(23), 6672-6682:
Solubility values are determined from agitation of compounds in 0.1 M phosphate buffer at pH 7.4 for 24 hours at 25° C. The supernatant is separated from undissolved material by double centrifugation and subsequently analysed and quantified against a standard of known concentration in DMSO using generic HPLC-UV methodology coupled with mass spectral peak identification.

[2] = biological target: T1, P-glycoprotein (KBA1 cells) (Homo sapiens, UniProt P08183); assay: P-gp substrate activity, Dose Modification Ratio with/without Verapamil, SRB assay; format: in vitro ADME; settings: IC50 without Verapamil / IC50 with 20 μM Verapamil, 5 days
T1 construct: Cells from the Hela cell line known as KBA1, which expressed high P-glycoprotein; endogenous in cells; host or cells: KBA1 (HeLa-derived) cells; matched non-P-gp line KB31
T1 sequence (P08183 whole entry): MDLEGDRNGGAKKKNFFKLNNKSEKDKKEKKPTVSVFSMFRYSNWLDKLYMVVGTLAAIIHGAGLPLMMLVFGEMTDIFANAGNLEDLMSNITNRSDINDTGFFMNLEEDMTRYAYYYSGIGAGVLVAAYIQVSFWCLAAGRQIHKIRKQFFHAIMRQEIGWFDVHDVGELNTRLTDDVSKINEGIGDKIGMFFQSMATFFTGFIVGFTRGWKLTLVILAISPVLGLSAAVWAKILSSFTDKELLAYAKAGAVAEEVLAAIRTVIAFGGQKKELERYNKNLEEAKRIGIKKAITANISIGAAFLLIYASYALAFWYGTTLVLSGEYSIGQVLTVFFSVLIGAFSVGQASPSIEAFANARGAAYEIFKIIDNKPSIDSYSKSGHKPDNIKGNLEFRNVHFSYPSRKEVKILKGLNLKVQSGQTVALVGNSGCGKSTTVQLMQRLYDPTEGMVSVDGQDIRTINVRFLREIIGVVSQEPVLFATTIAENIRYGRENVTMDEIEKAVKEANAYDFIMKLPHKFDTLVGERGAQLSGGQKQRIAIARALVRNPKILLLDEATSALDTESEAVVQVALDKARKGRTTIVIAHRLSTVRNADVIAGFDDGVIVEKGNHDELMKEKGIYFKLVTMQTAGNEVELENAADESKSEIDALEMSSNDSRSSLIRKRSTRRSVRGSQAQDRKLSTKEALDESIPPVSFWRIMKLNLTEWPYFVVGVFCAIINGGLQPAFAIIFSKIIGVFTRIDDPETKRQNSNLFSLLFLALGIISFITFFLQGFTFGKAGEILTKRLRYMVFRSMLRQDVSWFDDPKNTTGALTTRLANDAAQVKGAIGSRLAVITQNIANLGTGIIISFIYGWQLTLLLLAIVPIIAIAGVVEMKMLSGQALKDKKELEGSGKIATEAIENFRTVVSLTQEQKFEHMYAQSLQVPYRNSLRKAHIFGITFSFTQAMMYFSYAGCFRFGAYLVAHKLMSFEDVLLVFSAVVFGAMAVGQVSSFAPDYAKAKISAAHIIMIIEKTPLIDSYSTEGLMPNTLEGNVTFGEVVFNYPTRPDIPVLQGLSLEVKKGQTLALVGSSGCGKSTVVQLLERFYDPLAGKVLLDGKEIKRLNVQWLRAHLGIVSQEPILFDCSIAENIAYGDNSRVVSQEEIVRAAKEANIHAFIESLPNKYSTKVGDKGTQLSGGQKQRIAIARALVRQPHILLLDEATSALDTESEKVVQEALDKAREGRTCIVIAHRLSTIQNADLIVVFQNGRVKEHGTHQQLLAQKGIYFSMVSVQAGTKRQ
Experimental: Cells from the Hela cell line known as KBA1, which expressed high P-glycoprotein (ABC1a and ABC1b transporter glycoproteins also known as MDR1a and MDR1b) and the matched non-P-glycoprotein expressing line known as KB31, were seeded onto 96 well tissue culture plates with 80 μl per well of 1.00×10^4 cells/ml=800 cells/well [DMEM, 10% FBS, PSG] and left to adhere for 4 hours. After the incubation period 10 μl per well of 200 μM Verapamil (giving a final conc. of 20 μM) a known inhibitor of P-gp or vehicle media were added to various wells of the cell plates. The 96 well plates were left in the incubator for 1 hour prior to 10 μl of test compound (or the known substrate Etoposide as a reference control) or 10 μl PBS/1% DMSO vehicle (control wells) being added into either Verapamil containing or media control wells. […]
The cell plates were then incubated for 5 days prior to cell growth being assessed using the Sulforhodamine B (SRB) assay as described previously. The P-gp substrate activity for each compound was calculated using the cell growth activity of the tests compounds on the KBA1 cells in the presence or absence (control wells) of Verapamil. The Dose Modification Ratio (DMR) is calculated from the KBA1 where for each test compound a ratio of the IC50 of the compound in the absence of Verapamil is divided by the IC50 of cell growth in the presence of Verapamil. […]

HeLa cells = assay: Potentiation Factor (PF50): MMS growth inhibition, SRB assay; format: cell-based; settings: MMS 0-10 μg/ml, ratio IC50 control / IC50 + inhibitor; for PF50 (30 nM): PARP inhibitor at 30 nM; for PF50 (200 nM): PARP inhibitor at 200 nM
Experimental: The Potentiation Factor (PF50) for compounds is calculated as a ratio of the IC50 of control cell growth divided by the IC50 of cell growth+PARP inhibitor. Growth inhibition curves for both control and compound treated cells are in the presence of the alkylating agent methyl methanesulfonate (MMS). The test compounds were used at a fixed concentration of 0.2 micromolar. The concentrations of MMS were over a range from 0 to 10 μg/ml.
2,000 HeLa cells were seeded into each well of a flat-bottomed 96-well microtiter plate in a volume of 100 μl and incubated for 6 hours at 37° C. Cells were either replaced with media alone or with media containing PARP inhibitor at a final concentration of 30 nM or 200 nM. […] Cells treated with PARP inhibitor alone were used to assess the growth inhibition by the PARP inhibitor.
Cells were left for a further 16 hours before replacing the media and allowing the cells to grow for a further 72 hours at 37° C. The media was then removed and the cells fixed with 100 μl of ice cold 10% (w/v) trichloroacetic acid. The plates were incubated at 4° C. for 20 minutes and then washed four times with water. Each well of cells was then stained with 100 μl of 0.4% (w/v) SRB in 1% acetic acid for 20 minutes before washing four times with 1% acetic acid. Plates were then dried for 2 hours at room temperature. The dye from the stained cells was solubilized by the addition of 100 μl of 10 mM Tris Base into each well.

SMILES	solubility [1] [µmol]	Dose Modification Ratio (DMR) [2]	PF50 (30 nM) (HeLa cells)	PF50 (200 nM) (HeLa cells)
COC1CCN(C(=O)c2cc(Cc3n[nH]c(=O)c4ccccc34)ccc2F)CC1 [Compound 2b, 4-(4-fluoro-3-(4-methoxypiperidine-1-carbonyl)benzyl)phthalazin-1(2H)-one]	1070	1.3	3.0	15
CCOC1CCN(C(=O)c2cc(Cc3n[nH]c(=O)c4ccccc34)ccc2F)CC1 [Compound 2f, 4-(3-(4-ethoxypiperidine-1-carbonyl)-4-fluorobenzyl)phthalazin-1(2H)-one]	211	1.0	14.1	25
CCOC1CCN(C(=O)c2cccc(Cc3n[nH]c(=O)c4cccc(Cl)c34)c2)CC1 [Compound 119b, 5-chloro-4-(3-(4-ethoxypiperidine-1-carbonyl)benzyl)phthalazin-1(2H)-one]	–	–	1.2	–
COc1cccc2c(=O)[nH]nc(Cc3ccc(F)c(C(=O)N4CCC(OC)CC4)c3)c12 [Compound 126a, 4-(4-fluoro-3-(4-methoxypiperidine-1-carbonyl)benzyl)-5-methoxyphthalazin-1(2H)-one]	–	–	11.0	–
CCOC1CCN(C(=O)c2cc(Cc3n[nH]c(=O)c4cccc(OC)c34)ccc2F)CC1 [Compound 126b, 4-(3-(4-ethoxypiperidine-1-carbonyl)-4-fluorobenzyl)-5-methoxyphthalazin-1(2H)-one]	–	–	7.4	–
CCOC1CCN(C(=O)c2cc(F)cc(Cc3n[nH]c(=O)c4cccc(Cl)c34)c2)CC1 [Compound 129a, 5-chloro-4-(3-(4-ethoxypiperidine-1-carbonyl)-5-fluorobenzyl)phthalazin-1(2H)-one]	–	–	1.0	–
